Test results from patent US20130244999A1, “Substituted Heterocyclic Compounds” (Incyte Corporation, priority 2008, published 2013).
One block for each compound: values may come before it.

Molecular target: T1, histamine H4 receptor (Homo sapiens, UniProt Q9H3N8)
T1 construct: expressed in transfected cells; host or cells: HEK293SFM cells (membrane preparation)
Test: Inhibition of histamine H4 receptor (Table A1; H4 membrane binding assay)
Details: for IC50: histamine H4 receptor, "> a" = exceeds experiment limit
In short: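 Membranes came from recombinant HEK293SFM cells expressing human H4, homogenized in 50 mM Tris-HCl pH 7.5 with protease inhibitors. Nonspecific binding was set with 1000× unlabeled ligand. Bound radioligand was separated on PEI-treated GF/B filters and counted by liquid scintillation.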

SMILES: CC1Cc2ccc(-c3cc(C(=O)N4CCC4)n(C)c3)cc2CN1c1cc(N2CCN(C)CC2)nc(N)n1 (single isomer, unassigned) [Example 92A, 4-[7-[5-(azetidin-1-ylcarbonyl)-1-methyl-1H-pyrrol-3-yl]-3-methyl-3,4-dihydroisoquinolin-2(1H)-yl]-6-(4-methylpiperazin-1-yl)pyrimidin-2-amine]
- IC50: 25 nM

SMILES: CN1CCN(c2cc(N3CCc4ccc(-c5cnn(C6CCNCC6)c5)cc4C3)nc(N)n2)CC1 [Example 13, 4-(4-Methylpiperazin-1-yl)-6-[7-(1-piperidin-4-yl-1H-pyrazol-4-yl)-3,4-dihydroisoquinolin-2 (1H)-yl]pyrimidin-2-amine]
- IC50: 35 nM

SMILES: CN1CCN(c2cc(N3CCc4ccc(-c5ccc(C(=O)NCc6ccccn6)nc5)cc4C3)nc(N)n2)CC1 [Example 18, 5-{2-[2-Amino-6-(4-methylpiperazin-1-yl)pyrimidin-4-yl]-1,2,3,4-tetrahydroisoquinolin-7-yl}-N-(pyridin-2-ylmethyl)pyridine-2-carboxamide]
- IC50: 65 nM

SMILES: CC1Cc2ccc(-c3ccc4c(c3)CN(C3CC3)C4=O)cc2CN1c1cc(N2CCN(C)CC2)nc(N)n1 (stereo not drawn) [Example 129, 5-{2-[2-Amino-6-(4-methylpiperazin-1-yl)pyrimidin-4-yl]-3-methyl-1,2,3,4-tetrahydroisoquinolin-7-yl}-2-cyclopropylisoindolin-1-one]
- IC50: 112 nM

SMILES: CC1Cc2ccc(-c3cc(C(=O)NC4CC4)n(C)c3)cc2CN1c1cc(N2CCN(C)CC2)nc(N)n1 (single isomer, unassigned) [Example 91A, 4-{2-[2-Amino-6-(4-methylpiperazin-1-yl)pyrimidin-4-yl]-3-methyl-1,2,3,4-tetrahydroisoquinolin-7-yl}-N-cyclopropyl-1-methyl-1H-pyrrole-2-carboxamide]
- IC50: 49 nM

SMILES: CCC(=O)N1CCC(c2ccc3c(c2)CN(c2cc(N4CCN(C)CC4)nc(N)n2)C(C)C3)CC1 (stereo not drawn) [Example 149, 4-(4-Methylpiperazin-1-yl)-6-[3-methyl-7-(1-propionylpiperidin-4-yl)-3,4-dihydroisoquinolin-2 (1H)-yl]pyrimidin-2-amine]
- IC50: 26.1 nM

SMILES: CCOc1nc(-c2ccc3c(c2)CN(c2cc(N4CCN(C)CC4)nc(N)n2)C(C)C3)cs1 (stereo not drawn) [Example 117, 4-[7-(2-Ethoxy-1,3-thiazol-4-yl)-3-methyl-3,4-dihydroisoquinolin-2(1H)-yl]-6-(4-methylpiperazin-1-yl)pyrimidin-2-amine]
- IC50: 43 nM

SMILES: CNC(=O)c1ncc(-c2ccc3c(c2)CN(c2cc(N4CCN(C)CC4)nc(N)n2)CC3)cc1C [Example 45, 5-{2-[2-Amino-6-(4-methylpiperazin-1-yl)pyrimidin-4-yl]-1,2,3,4-tetrahydroisoquinolin-7-yl}-N,3-dimethylpyridine-2-carboxamide]
- IC50: 106 nM

SMILES: CC1Cc2ccc(-c3ccn(CC#N)n3)cc2CN1c1cc(N2CCN(C)CC2)nc(N)n1 (single isomer, unassigned) [Example 82B, (3-{2-[2-Amino-6-(4-methylpiperazin-1-yl)pyrimidin-4-yl]-3-methyl-1,2,3,4-tetrahydroisoquinolin-7-yl}-1H-pyrazol-1-yl)acetonitrile]
- inhibition at 1 µM: 66%

SMILES: CC1Cc2ccc(-c3ccn(CCO)n3)cc2CN1c1cc(N2CCN(C)CC2)nc(N)n1 (single isomer, unassigned) [Example 84B, 2-(3-{2-[2-Amino-6-(4-methylpiperazin-1-yl)pyrimidin-4-yl]-3-methyl-1,2,3,4-tetrahydroisoquinolin-7-yl}-1H-pyrazol-1-yl)ethanol]
- inhibition at 1 µM: 52%

SMILES: CN1CCN(c2cc(N3Cc4ccccc4CC3=O)nc(N)n2)CC1 [Example 23, 2-[2-Amino-6-(4-methylpiperazin-1-yl)pyrimidin-4-yl]-1,4-dihydroisoquinolin-3(2H)-one]
- IC50: 158 nM

Second part, the compound after the results:

- IC50: 57 nM
SMILES: CC1Cc2ccc(-c3ccnc(C(=O)N4CC[C@H](F)C4)c3)cc2CN1c1cc(N2CCN(C)CC2)nc(N)n1 (single isomer, unassigned) [Example 66B]

- IC50: 30 nM
SMILES: CC1Cc2ccc(-c3ccnc(C(=O)N(C)CCN(C)C)c3)cc2CN1c1cc(N2CCN(C)CC2)nc(N)n1 (single isomer, unassigned) [Example 68A, 4-{2-[2-amino-6-(4-methylpiperazin-1-yl)pyrimidin-4-yl]-3-methyl-1,2,3,4-tetrahydroisoquinolin-7-yl}-N-[2-(dimethylamino)ethyl]-N-methylpyridine-2-carboxamide]

- IC50: 231 nM
SMILES: CCn1ccc(-c2ccc3c(c2)CN(c2cc(N4CCN(C)CC4)nc(N)n2)C(C)C3)n1 (single isomer, unassigned) [Example 86B, 4-[7-(1-Ethyl-1H-pyrazol-3-yl)-3-methyl-3,4-dihydroisoquinolin-2(1H)-yl]-6-(4-methylpiperazin-1-yl)pyrimidin-2-amine]

- IC50: 144 nM
SMILES: CC1Cc2ccc(-c3ccc(C(=O)N4CCN(C)CC4)nc3)cc2CN1c1cc(N2CCN(C)CC2)nc(N)n1 (stereo not drawn) [Example 58, 4-[3-Methyl-7-{6-[(4-methylpiperazin-1-yl)carbonyl]pyridin-3-yl}-3,4-dihydroisoquinolin-2 (1H)-yl]-6-(4-methylpiperazin-1-yl)pyrimidin-2-amine]

- IC50: 269 nM
SMILES: CC1Cc2ccc(-c3ccc(C(=O)N(C)C)cn3)cc2CN1c1cc(N2CCN(C)CC2)nc(N)n1 (single isomer, unassigned) [Example 72, 6-{2-[2-Amino-6-(4-methylpiperazin-1-yl)pyrimidin-4-yl]-3-methyl-1,2,3,4-tetrahydroisoquinolin-7-yl}-N,N-dimethylnicotinamide]

- inhibition at 1 µM: 72%
SMILES: CC(C)NC(=O)c1cc(-c2ccc3c(c2)CN(c2cc(N4CCN(C)CC4)nc(N)n2)C(C)C3)cn1C (single isomer, unassigned) [Example 90B, 4-{2-[2-Amino-6-(4-methylpiperazin-1-yl)pyrimidin-4-yl]-3-methyl-1,2,3,4-tetrahydroisoquinolin-7-yl}-N-isopropyl-1-methyl-1H-pyrrole-2-carboxamide]

- IC50: 86 nM
SMILES: CC1Cc2ccc(-c3ccnc(C(=O)N4CCN(C)CC4)c3)cc2CN1c1cc(N2CCN(C)CC2)nc(N)n1 (single isomer, unassigned) [Example 70, 4-[3-Methyl-7-{2-[(4-methylpiperazin-1-yl)carbonyl]pyridin-4-yl}-3,4-dihydroisoquinolin-2(1H)-yl]-6-(4-methylpiperazin-1-yl)pyrimidin-2-amine]

- IC50: 88.7 nM
SMILES: CC1Cc2ccc(-c3ccc(C(=O)N(C)C)nc3)cc2CN1c1cc(N2CCN(C)CC2)nc(N)n1 (single isomer, unassigned) [Example 50A, 5-(2-(2-amino-6-(4-methylpiperazin-1-yl)pyrimidin-4-yl)-3-methyl-1,2,3,4-tetrahydroisoquinolin-7-yl)-N,N-dimethylpicolinamide]

- inhibition at 1 µM: 78%
SMILES: CC1Cc2ccc(-c3ccc(C(=O)N(C)C)nc3)cc2CN1c1cc(N2CCN(C)CC2)nc(N)n1 (single isomer, unassigned) [Example 50 B, 5-(2-(2-amino-6-(4-methylpiperazin-1-yl)pyrimidin-4-yl)-3-methyl-1,2,3,4-tetrahydroisoquinolin-7-yl)-N,N-dimetitylpicolinamide]

- IC50: 86 nM
SMILES: CC1Cc2ccc(-c3ccnc(C(=O)N4CCCC4)c3)cc2CN1c1cc(N2CCN(C)CC2)nc(N)n1 (single isomer, unassigned) [Example 64B, 4-(4-methylpiperazin-1-yl)-6-[3-methyl-7-[2-(pyrrolidin-1-ylcarbonyl)pyridin-4-yl]-3,4-dihydroisoquinolin-2(1H)-yl]pyrimidin-2-amine]
